Experiments:
[1] = biological target: monoclonal antibody DD-4; assay: Competition ELISA with monoclonal antibody DD-4; format: binding, BALB/c mice; conditions: for I50 (inhibits antibody binding by 50%): competitor vs monoclonal antibody DD-4, plate coated with A-triCDD-RSA
Protocol: (§1) In this case the hybridomas were then screened for their ability to distinguish A-triCDD-BSA and A-triCDD-RSA from BSA and RSA. On the basis of this initial screen about 25 stable, antibody-producing colonies were isolated, subcloned, and frozen. The remaining clones were again screened for their abilities to recognize free TCDD in suspension. Experimentally, on the order of 10-100 nanograms of TCDD in hexane was dried, 0.5 ml of saline with BSA (1 mg/ml) was added and sonificated for 2 hrs. […] Identical procedures were followed for other dioxin isomers. A dilution series in microtiter plate wells was then made with the suspended TCDD, antibody adde, and the competition ELISA completed. Competition ELISA test procedures are discussed in detail in the following reference: Butt, W. R. (1984) "Practical Immunoassay: The State of the Art", Marcel Dekker, Inc., N.Y., N.Y.
(§2) A large part of the success that we have had in characterizing the binding specificities of our monoclonal antibodies comes from having developed a reliable competition ELISA protocol. Our preferred assay starts from stock solutions at 10 ppm in hexane of the various compounds listed in Table I. 10 μl of hexane solution is aliquoted into a small vial, evaporated under a stream of nitrogen gas, and 500 μl of a 1 mg/ml solution of BSA in phosphate buffered saline with 0.1% BSA is added. The vial is capped and placed in an ultrasonic cleaning waterbath for two hours. Two hours of sonification gives a more reproducible assay than does an hour. During the sonification, the hexane appears to evaporate completely, and one is left with an aqueous solution containing the dioxin. Microtiter plates coated with A-triCDD-RSA are blocked with a three percent solution of ovalbumin and a two-fold dilution series of sonificated dioxin-BSA is then made, covering the range 100 ppb-0.1 ppb. In each well of the plate 100 μl of the sonificated dioxin-BSA solution is mixed with n equal volume of antibody. The antibody partitions between the dioxin adsorbed to the BSA, and the A-tri-CDD-RSA on the plate.
(§3) A-TriCDD-RSA was adsorbed onto the surface of the wells of a microtiter plate. The various competitors listed were suspended in saline containing bovine serum albumin (BSA). These solutions were made by sonificating 10 μl of dioxin solution in hexane with 500 μl of saline-BSA. A dilution series of these dioxin-BSA solutions was then made covering the range of 100-0.2 ppb, and placed in the microtiter plate wells. An equal volume of DD-1 monoclonal antibody was then added, and allowed to react for 1 hour. Tne antibody binds either to the A-TriCDD-RSA on the plate or the dioxin in solution. After the hour, the solution phase is removed, the plate washed, and it is reincubated for an hour with peroxidase-conjugated goat-anti-mouse-immunoglobulins. A second washing is then done, and substrate (ABTS) added to the peroxidase. The enzyme-antibody conjugate and substrate function as a "developer", allowing the visualization of the DD-1 bound to the A-triCDD-RSA on the plate. Results are then expressed as a fraction of the response in wells with no competitor. […] At about 20 ppb of 2,3,7,8-TCDD the relative ELISA response is half of control, meaning that half the DD-1 antibody bound to the solution phase dioxin and half bound to the A-triCDD-RSA on the plate. For 1,2,3,7(8)-TCDD, 50% inhibition occurs at about 4 ppb, indicating the DD-1 prefers 1,2,3,7(8)-TCDD to 2,3,7,8-TCDD.
(§4) The FIGURE and Table II show representative competition data using several chlorinated compounds as competitors. From such data, one can determine the concentration required to inhibit antibody binding by 50% (I50). Table II lists the I50 for all compounds tested with the antibodies. In reporting these values, factors of two are about the limit of significance. […] The binding specificities of these antibodies are highly desirable, since they prefer the most toxic of the dioxin and dibenzofuran isomers.

[2] = biological target: monoclonal antibody DD-6; assay: Competition ELISA with monoclonal antibody DD-6; format: binding, Biozzi mice; conditions: competitor vs monoclonal antibody DD-6; plate coated with A-triCDD-RSA
Protocol: as §1, §2, §3, §4

[3] = biological target: monoclonal antibody DD-3; assay: Competition ELISA with monoclonal antibody DD-3; format: binding, BALB/c mice; conditions: competitor vs monoclonal antibody DD-3; plate coated with A-triCDD-RSA
Protocol: as §1, §2, §3, §4

[4] = biological target: monoclonal antibody DD-5; assay: Competition ELISA with monoclonal antibody DD-5; format: binding, Biozzi mice; conditions: competitor vs monoclonal antibody DD-5; plate coated with A-triCDD-RSA
Protocol: as §1, §2, §3, §4

[5] = biological target: monoclonal antibody DD-1; assay: Competition ELISA with monoclonal antibody DD-1; format: binding, Biozzi mice; conditions: for I50 (inhibits antibody binding by 50%): competitor vs monoclonal antibody DD-1, plate coated with A-triCDD-RSA
Protocol: as §1, §2, §3, §4

Molecule	I50 (inhibits antibody binding by 50%) [1] [ng]	I50 (inhibits antibody binding by 50%) [2] [ng]	I50 (inhibits antibody binding by 50%) [3] [ng]	I50 (inhibits antibody binding by 50%) [4] [ng]	I50 (inhibits antibody binding by 50%) [5] [ng]	reactivity of DD-4 with competitor ([1]; DD-4)	concentration at which 50% inhibition occurs (relative ELISA response half of control) ([5]; FIGURE, DD-1, competitor in saline-BSA, dilution series 100-0.2 ppb)
Toxaphene	> 2000	> 2000	> 2000	> 2000	–	–	–
Clc1ccc(Cl)c(-c2c(Cl)c(Cl)c(Cl)c(Cl)c2Cl)c1Cl [2,2',3,3',4,5,6,6'-Octa-CBP]	> 200	> 200	> 200	> 10	> 200	–	–
O=[N+]([O-])c1cc(Cl)cc(Cl)c1O [2,4-Dichloro-6-nitrophenol, 2,4-Dichloro-6-nitro-phenol]	> 2000	> 2000	> 2000	> 2000	> 2000	–	–
ClC1=C(Cl)C2(Cl)C3C4CC(C5OC45)C3C1(Cl)C2(Cl)Cl (stereo not shown) [Endrin]	> 2000	> 2000	> 2000	> 2000	> 2000	–	–
O=C(O)COc1ccc(Cl)cc1Cl [2,4-Dichlorophenoxyacetic, 2,4-Dichlorophenoxy-acetic]	> 2000	–	> 2000	–	> 2000	–	–
Clc1ccc(-c2ccc(Cl)c(Cl)c2)cc1Cl [3,3',4,4'-TCBP]	> 200	100	> 200	> 10	> 200	–	–
Clc1cc(Cl)c2c(c1Cl)Oc1ccccc1O2 [1,2,4-Tri-CDD]	> 200	> 200	> 200	> 10	> 200	–	–
Clc1ccc(Cl)c(-c2c(Cl)c(Cl)c(Cl)c(Cl)c2Cl)c1 [2,2',3,4,5,5',6-Hepta-CBP]	> 200	> 200	> 200	> 10	> 200	–	–
O=C1C2(Cl)C3(Cl)C4(Cl)C(Cl)(Cl)C5(Cl)C3(Cl)C1(Cl)C5(Cl)C24Cl (stereo not shown) [Kepon]	> 2000	> 2000	> 2000	> 2000	> 2000	–	–
ClC1C(Cl)C(Cl)C(Cl)C(Cl)C1Cl (stereo not shown) [BHC]	> 2000	> 2000	> 2000	> 2000	300	–	–
1,2,3,6(7),7(8),8(9)-hexa-CD[	> 200	> 200	> 200	> 10	> 200	some reactivity	–
ClC1=C(Cl)C2(Cl)C3C(Cl)C=CC3C1(Cl)C2(Cl)Cl (stereo not shown) [Heptachlor]	> 2000	> 2000	> 2000	> 2000	> 2000	–	–
Clc1cc2c(cc1Cl)Oc1c(cc(Cl)c(Cl)c1Cl)O2 [1,2,3,7,8-penta-CDD]	0.02	> 0.004	0.15	–	0.2	–	–
Clc1ccc(-c2cc(Cl)c(Cl)c(Cl)c2Cl)c(Cl)c1 [2,2',3,4,4',5-Hexa-CBP]	> 200	> 200	> 200	> 10	> 200	–	–
O=[N+]([O-])c1cc(Cl)ccc1Cl [2,5-Dichloronitrobenzene, 2,5-Dichloronitro-benzene]	> 2000	700	2000	2000	90	–	–
Clc1ccccc1 [Chlorobenzene]	> 2000	> 2000	> 2000	> 2000	> 2000	–	–
Clc1ccccc1-c1cc(Cl)c(Cl)c(Cl)c1Cl [2,2',3,4,5-Penta-CBP]	> 200	> 200	> 200	> 10	> 200	–	–
Oc1cc(Cl)c(Cl)cc1O [4,5-Dichlorocatechol]	> 2000	> 2000	> 2000	> 2000	2000	–	–
ClC1=C(Cl)C2(Cl)C3C4C=CC(C4)C3C1(Cl)C2(Cl)Cl (stereo not shown) [Aldrin]	> 2000	> 2000	> 2000	> 2000	> 2000	–	–
1,2,3,7,(8)-TCDD	0.3	0.15	0.45	0.3	0.15	–	about 4 ppb
OCC(Cl)(Cl)Cl [2,2,2-Tricholoroethanol, 2,2,2-Tricholoro-ethanol]	> 2000	> 2000	> 2000	> 2000	> 2000	–	–
O=[N+]([O-])c1c(Cl)ccc2c1Oc1cc(Cl)c(Cl)cc1O2 [1-nitro-2,7,8-TriCDD]	0.02	> 0.004	0.15	–	0	–	–
Clc1ccc2c(c1)Oc1c(Cl)c(Cl)c(Cl)c(Cl)c1O2 [1,2,3,4,7-penta-CDD]	> 2	> 2	> 2	–	> 2	–	–
Brc1cc2c(cc1Br)Oc1cc(Br)c(Br)cc1O2 [2,3,7,8-tetra-Bromo-DD]	1	> 2	1	–	0.05	–	–

From patent publication US4798807A, “Monoclonal antibodies and method for detecting dioxins and dibenzofurans” (priority 1986, dated 1989)
